Data from patent publication US9302998B2, “Aryl triazole compounds with antitumoural activity” (SIGMA-TAU RESEARCH SWITZERLAND S.A., priority 2010, dated 2016).

Legend:
Hsp90 = biological target: T1, Hsp90 (Homo sapiens, UniProt P07900); assay: Fluorescence Polarization (FP) binding, GM-BODIPY displacement from Hsp90; conditions: GM-BODIPY tracer, 4° C. for 4 hours
T1 construct: purchased Stressgen SPP-776
Experimental: GM-BODIPY (PerkinElmer, CUSN60342000MG) was previously dissolved in DMSO to obtain 10 mM stock solutions and kept at −20° C. until use.
Hsp90 (Stressgen, SPP-776), was previously dissolved in assay buffer (HFB) to form 2.2 μM stock solutions and kept at −80° C. until use.
The compounds were previously dissolved in DMSO to obtain stock solutions and kept at −20° C. The day of experiment, the compounds were prepared by serial dilutions in assay buffer (HFB) containing 20 mM HEPES (K) pH 7.3, 50 mM KCl, 5 mM MgCl2, 20 mM Na2MoO4 and 0.01% NP40. Before each use, 0.1 mg/ml Bovine Gamma globulin and 2 mM DTT were freshly added.
Fluorescence Polarization (FP) was performed in Opti-Plate™-96F well plates (Perkin Elmer, Zaventem, Belgium) using a plate reader (Wallac Envision 2101 multilabel reader, Perkin Elmer, Zaventem, Belgium). To evaluate the binding affinity of the molecules, 50 μl of the GM-BODIPY solution (100 nM) were added to 125 nM of Hsp90 in the presence of 5 μl of the test compounds at increasing concentrations. The plate was mixed on a shaker at 4° C. for 4 hours, and the FP values in mP (millipolarization units) were recorded. The IC50 values were calculated as the inhibitor concentration where 50% of the tracer is displaced; each data point is the result of the average of triplicate wells, and was determined from a plot using nonlinear least-squares analysis. Curve fitting was performed using
Prism GraphPad software program (GraphPad software, Inc., San Diego, Calif.).

[1] = tested on: NCI-H460 non-small cell lung carcinoma; assay: Cytotoxicity assay, sulphorodamine B test, NCI-H460; assay type: cell-based; conditions: Homo sapiens, NCI-H460; 72 h, sulphorodamine B
Experimental: The antiproliferative activity of novel Hsp90 inhibitors was also evaluated on various cancerous cell lines by means of the sulphorodamine B test (i.e., NCI-H460 non-small cell lung carcinoma, A431 epidermoid, A2780 ovarian, MDA-MB436 triple-negative breast, U87MG glioblastoma, A498 renal, HCT116 colon, MeWo melanoma, MiaPaCa2 pancreas, HeLa cervix uteri, NB4 promyelocytic leukemia). NCI-H460, A431, MDA-MB436, A2780, A498, HeLa, NB4 tumour cells were grown in RPMI 1640 containing 10% fetal bovine serum (i.e., FBS from GIBCO), L-glutamine, and 50 μg/ml gentamycin sulfate.
All cell lines were maintained in a 37° C. incubator with saturated humidity and an atmosphere containing 95% air and 5% CO2, and were sub-cultured every 2-3 days. Tumour cells were seeded in 96-well tissue culture plates at approximately 10% confluence and were allowed to attach and recover for 24 h.
Varying concentrations of the drugs were then added to each well to calculate their IC50 value (the concentration which inhibits the 50% of cell survival). The plates were incubated at 37° C. for 72 h. At the end of the treatment, the plates were washed by remotion of the supernatant and addition of PBS 3 times. 200 μl PBS and 50 μl of cold 80% trichloroacetic acid (TCA) were added. The plates were incubated on ice for at least 1 h. TCA was removed, the plates were washed 3 times by immersion in distilled-water and dried on paper and at 40° C. for […]. Then 200 μl of 0.4% sulphorodamine B in 1% acetic acid were added. The plates were incubated at room temperature for 30 min. Sulphorodamine B was removed, the plates were washed by immersion in 1% acetic acid for 3 times, then they were dried on paper and at 40° C. for 5 min. Then, 200 μl Tris 10 mM were added, the plates were kept under stirring for 20 min. The cell survival was determined as optical density by a Multiskan […] at 540 nm. The amount of cells killed was calculated as the percentage decrease in sulphorodamine B binding compared with control cultures.

Row | IC50 (Hsp90) [nM] | Structure (SMILES) | IC50 [1] [nM]
1 | < 50 | CC(C)c1cc(-n2nncc2-c2ccc(CN3CCOCC3)cc2)c(O)cc1O [Example 1] | 100 to 500
2 | < 50 | CC(C)c1cc(-n2nncc2-c2ccc(CN3CCN(c4ccccc4)CC3)cc2)c(O)cc1O [Example 4, 4-isopropyl-6-{5-[4-(4-phenyl-piperazin-1-ylmethyl)-phenyl]-[1,2,3]triazol-1-yl}-benzene-1,3-diol] | 500 to 1000
3 | < 50 | CCNC(=O)c1nnn(-c2cc(C(C)C)c(O)cc2O)c1-c1ccc(CN(CC)CC)cc1 [Example 10, 5-(4-diethylaminomethyl-phenyl)-1-(2,4-dihydroxy-5-isopropyl-phenyl)-1H-[1,2,3]triazole-4-carboxylic acid ethylamide] | < 50
4 | < 50 | CCNC(=O)c1nnn(-c2cc(C(C)C)c(O)cc2O)c1-c1ccc(CNC2CCCCC2)cc1 [Example 16, 5-(4-cyclohexylaminomethyl-phenyl)-1-(2,4-dihydroxy-5-isopropyl-phenyl)-1H-[1,2,3]triazole-4-carboxylic acid ethylamide] | < 50
5 | < 50 | CCNC(=O)c1nnn(-c2cc(C(C)C)c(O)cc2O)c1-c1ccc(CNCCCN(CC)CC)cc1 [Example 18, 5-{4-[(3-diethylamino-propylamino)-methyl]-phenyl}-1-(2,4-dihydroxy-5-isopropyl-phenyl)-1H-[1,2,3]triazole-4-carboxylic acid ethylamide] | 500 to 1000
6 | < 50 | CCNC(=O)c1nnn(-c2cc(C(C)C)c(O)cc2O)c1-c1ccc(CNC2CCN(C)CC2)cc1 [Example 19, 1-(2,4-dihydroxy-5-isopropyl-phenyl)-5-{4-[(1-methyl-piperidin-4-ylamino)-methyl]-phenyl}-1H-[1,2,3]triazole-4-carboxylic acid ethylamide] | 
7 | 50 to 100 | CC(C)c1cc(-n2nncc2Nc2ccc(N3CCOCC3)cc2)c(O)cc1O [Example 23, 4-isopropyl-6-[5-(4-morpholin-4-yl-phenylamino)-[1,2,3]triazol-1-yl]-benzene-1,3-diol] | 
8 | 100 to 500 | CC(C)c1cc(-n2nncc2NCc2ccc(N3CCOCC3)cc2)c(O)cc1O [Example 24, 4-isopropyl-6-[5-(4-morpholin-4-yl-benzylamino)-[1,2,3]triazol-1-yl]-benzene-1,3-diol] | 
9 | 50 to 100 | CCNC(=O)c1nnn(-c2cc(C(C)C)c(O)cc2O)c1Nc1ccc(N2CCOCC2)cc1 [Example 25, 1-(2,4-dihydroxy-5-isopropyl-phenyl)-5-(4-morpholin-4-yl-phenylamino)-1H-[1,2,3]triazole-4-carboxylic acid ethylamide] | 500 to 1000
10 | 100 to 500 | CC(C)c1cc(-n2nnc(C(=O)N3CCOCC3)c2-c2ccc(CN3CCOCC3)cc2)c(O)cc1O [Example 30, [1-(2,4-dihydroxy-5-isopropyl-phenyl)-5-(4-morpholin-4-ylmethyl-phenyl)-1H-[1,2,3]triazol-4-yl]-morpholin-4-yl-methanone] | 
11 | 100 to 500 | CC(C)c1cc(-n2nnc(C(=O)N[C@H](C(=O)O)C(C)C)c2-c2ccc(CN3CCOCC3)cc2)c(O)cc1O [Example 31, (S)-2-{[1-(2,4-dihydroxy-5-isopropyl-phenyl)-5-(4-morpholin-4-ylmethyl-phenyl)-1H-[1,2,3]triazole-4-carbonyl]-amino}-3-methyl-butyric acid] | 
